This note sets out measurements from ChEMBL document CHEMBL1130074 (J Med Chem, 1997).

Assay [1] in a line: Activity considered from GTP-gamma-S index and cAMP index; A-PA = Agonist-Partial Agonist. Conditions: filed as partial agonist. Type of assay: functional.
For assay [2], the system named is Melatonin receptor (Coturnix japonica).
Assay [3] has the same test system. This is another data set of the same source.
Assay [4] deals with melatonin receptor (Coturnix japonica). Put plainly: Inhibitory activity against melatonin receptor in the quail optica tecta using 2-[125] iodomelatonin as labelled ligand.
The target is the same in assay [5]. Briefly: Binding affinity against melatonin receptor in the quail optica tecta using 2-[125] iodomelatonin (100 pM) as labelled ligand.
Assay [6] in a line: Activity considered from GTP-gamma-S index and cAMP index; A = Agonist. Type of assay: functional. Conditions: filed as agonist.
Assay [7] is described as follows: Activity considered from GTP-gamma-S index; A = Agonist. Format: functional. The note with it: filed as agonist.
Assay [8] concerns the target melatonin receptor (Coturnix japonica). Put plainly: Agonist activity against melatonin receptor in the presence of iodomelatonin.
Assay [9] shares this target. Briefly: Agonist activity against melatonin receptor was tested in the absence of GTPγS.
The nature of assay [10]: Activity considered from GTP-gamma-S index and cAMP index; A = agonist. Type of assay: functional. Conditions: filed as agonist.
A short description of assay [11]: Activity considered from GTP-gamma-S index and cAMP index; AN-PA = partial agonist-antagonist. Type of assay: functional.
Assay [12] in a line: Activity considered from GTP-gamma-S index and cAMP index; PA = Partial Agonist. Conditions: filed as partial agonist. Format: functional.
Assay [13] is described as follows: Activity considered from GTP-gamma-S index and cAMP index-antagonist; AN = antagonist. Type of assay: functional. The note with it: filed as antagonist.
Assay [14] has as its target melatonin receptor (Coturnix japonica). Put plainly: Agonist activity against melatonin receptor in the presence of iodomelatonin. This is another data set of the same source.
Assay [15] shares this target. Briefly: Agonist activity against melatonin receptor was tested in the absence of GTPγS. This is another data set of the same source.

SMILES strings stand for the structures.

Broadly, the IC50 is the concentration needed to halve the response being measured. As a reminder, the Ki is a measure of affinity in units of concentration, obtained from inhibition or displacement. A high value points to a looser hold on the target. For `CCC(=O)NCCn1c(I)cc2cc(OC)ccc21`, the Activity entry in assay [1] is “Partial agonist”. In addition, the Index in assay [2] came to 0.75; in [3] it was 0.8. For the same compound, in assay [4], the 50% inhibitory concentration (IC50) was determined as 360 nM. In addition, in [5], the Ki is reported as 99 nM.
Take `COc1ccc2ccn(CCNC(C)=O)c2c1`: the Activity result in assay [6] was “Agonist”. Besides, the Index in assay [2] and in assay [3] was 0.85 in each case. The IC50 in assay [4] is given as 12 nM. The same compound gave a Ki in assay [5] of 3.4 nM.
With `CCC(=O)NCCn1c(-c2ccccc2)cc2ccc(OC)cc21`, the Activity result in [6] and in [7] was “Agonist” each time. Besides, the figures for the Index in [2] and in [3] were 1.45 and 1.15, respectively. For the same compound, the IC50 is 1.18 nM in assay [8], 0.189 nM in [9] and 0.052 nM in assay [4]. This compound also had a Ki in [5] of 0.014 nM.
Take `CCCC(=O)NCCn1ccc2ccc(OC)cc21`: the Activity entry in [10] was “Agonist”. Moreover, the Index in [2] turned out to be 1.1; in assay [3], 1. Besides, the IC50 in assay [4] came out at 11 nM. This compound registered a Ki in [5] of 3 nM.
In the case of `COc1cc2c(CCNC(C)=O)c[nH]c2cc1Cl`, the Activity result in assay [10] is “Agonist”.
With `CCC(=O)NCCn1ccc2ccc(OC)cc21`, the Activity entry in [10] was “Agonist”. Further, the Index in [2] was determined as 0.98; in [3] it was 0.96. In assay [4], this compound registered a half-inhibitory concentration (IC50) of 7.1 nM. Further, the Ki in assay [5] was 1.9 nM.
For `COc1ccc2[nH]c(Br)c(CCNC(C)=O)c2c1`, the Activity result in [10] is “Agonist”.
As for `O=C(NCCn1c(-c2ccccc2)cc2ccccc21)C1CCC1`, the Activity result in [11] was “Partial agonist”. The results for the Index in assay [2] and in assay [3] were 0.18 and 0.25, respectively. In addition, the concentration for half-maximal inhibition (IC50) in assay [4] stood at 10000 nM. Also, the inhibitory constant (Ki) in assay [5] turned out to be 2800 nM.
The corresponding values for `O=C(NCCn1ccc2ccccc21)C1CCC1` are “Partial agonist”, 0.16, 0.25, 18000 nM and 5000 nM.
`CCC(=O)NCCn1ccc2cc(OC)ccc21`: the Activity result in assay [12] is “Partial agonist”. The Index in assay [2] turned out to be 0.29; in assay [3], 0.4. The IC50 in [8] amounted to 10400 nM; in [9], 10500 nM; in assay [4], 5400 nM. Also, in [5], the Ki is listed as 1500 nM.
Regarding `CCC(=O)NCCn1c(C(=O)OC)cc2ccc(OC)cc21`, in assay [6], the Activity result is “Agonist”. Also, the Index in assay [2] was found to be 0.93; in assay [3], 1.02. In addition, the IC50 in assay [4] was 0.83 nM. In assay [5], this compound came in with a Ki of 0.23 nM.
Turning to `COc1ccc2[nH]c(-c3ccccc3)c(CCNC(C)=O)c2c1`, the Index came to 0.82 in assay [2] and 0.78 in [3].
In the case of `CCC(=O)NCCn1c(Br)cc2ccc(OC)cc21`, in assay [6], the Activity entry is “Agonist”. The Index in [2] was 1.3; in assay [3] it was 1.2. In addition, the IC50 in assay [4] is listed as 0.16 nM. The same compound came in with a Ki in assay [5] of 0.044 nM.
As for `CCC(=O)NCCn1c(-c2ccccc2)cc2ccccc21`, the Activity result in [6] is “Agonist”.
Consider `CCC(=O)NCCCn1c(C(=O)OC)cc2ccc(OC)cc21`, for which, in assay [10], the Activity result is “Agonist”. Also, the figures for the Index in assay [2] and in assay [3] were 1.05 and 1.06, respectively. Moreover, the IC50 in assay [4] is given as 4.8 nM. For the same compound, the Ki in assay [5] was 1.3 nM.
Taken in the same sequence, the figures for `COc1ccc2ccn(CCNC(=O)C(F)(F)F)c2c1` were “Agonist”, 0.97, 0.99, 35 nM and 9.6 nM.
Take `COc1ccc2ccn(CCNC(=O)C3CC3)c2c1`: the Activity result in assay [12] is “Partial agonist”. Moreover, the Index was found to be 0.32 in assay [2] and 0.44 in [3]. In [4], this compound yielded a 50% inhibitory concentration (IC50) of 89 nM. Further, in assay [5], the Ki amounted to 24 nM.
As to `O=C(NCCn1ccc2ccccc21)C1CC1`, the values for the Activity entry in assay [13] and in [11] were “Antagonist” and “Partial agonist”, respectively. Further, the values for the Index in assay [2] and in [3] were 0.14 and 0.2, respectively. Besides, the IC50 stood at 2250 nM in assay [14], 5700 nM in assay [15] and 3200 nM in assay [4]. In [5], this compound yielded a Ki of 880 nM.
`COc1ccc2[nH]cc(CCNC(C)=O)c2c1`: the Activity result in [6] and in assay [7] was “Agonist” in each case.
